Test results reported in patent US20110086870A1, “Combination Therapy” (AstraZeneca AB, priority 2003, published 2011).

Assays:
[1] = system: human LS-174T colon tumour xenografts; assay: Human LS-174T colon tumour xenografts in Nude mice, test (a) 5-FU+ZD6474; format: in vivo; settings: for Inhibition of Control Tumour Growth at day 13 / Regressions: number of tumours which had regressed by ≧10% in volume by day 13, compared with pre-treatment volume on day 0: ZD6474 25 mg/kg/day p.o. d 0-13, 5-FU 75 mg/kg i.v. d 0 and 7; for Inhibition of Control Tumour Growth at day 13: versus vehicle control; for Regressions: number of tumours which had regressed by ≧10% in volume by day 13, compared with pre-treatment volume on day 0: regressed tumours/tumours in group; for tumour regressions: share of tumours regressed by day 13, same doses as the table
Description: 10^7 LS-174T tumour cells in 0.2 ml of serum free Roswell Park Memorial Institute (RPMI)-1640 medium were injected subcutaneously (s.c.) into the flanks of 10 athymic (nu/nu genotype) mice. When tumour sizes reached 700-1000 mm^3 (3-4 weeks), tumours were surgically excised and smaller tumour fragments thereof (20-30 mg) were implanted s.c. in the right flank of 120 Nude mice. When tumours reached a volume of 100 to 200 mm^3 (14-16 days after the graft), mice were randomized into groups (13-15 per group) and treatment started.
• The control group (Group 1) received a daily oral (p.o.) administration of ZD6474 vehicle for 14 consecutive days (day 0-13) combined with two intravenous (i.v.) injections of saline (the vehicle for 5-FU) on day 0 and 7. • For Group 2, the treatments consisted of a daily p.o. administration of ZD6474 alone at 25 mg/kg/administration for 14 consecutive days (day 0-13) combined with two i.v. injections of saline (the vehicle for 5-FU) on day 0 and 7. ZD6474 was prepared as a suspension in 1% polysorbate 80 (i.e. a 1% (v/v) solution of polyoxyethylene (20) sorbitan mono-oleate in deionised water). • Group 3 received two i.v. injections of 5-FU at 75 mg/kg/injection, on day 0 and 7, combined with a daily p.o. administration of ZD6474 vehicle for 14 consecutive days (day 0-13). • Group 4 received daily p.o. administration of ZD6474 at 25 mg/kg/administration for 14 consecutive days (day 0-13) combined with two i.v. injections of 5-FU at 75 mg/kg/injection, on day 0 and 7.
The administration volume of ZD6474 was 10.0 ml/kg (200 μl for a 20 g mouse). The injection volume of 5-FU was 10.0 ml/kg (200 μl for a 20 g mouse).
Tumor volumes (mm^3) were assessed at least twice weekly by bilateral Vernier caliper measurement and, taking length to be the longest diameter across the tumor and width the corresponding perpendicular, calculated using the formula (π/6)×(length×width)×the square root of (length×width). Growth inhibition from the start of treatment was assessed by comparison of the differences in tumor volume between control and treated groups. For all mice, the study was stopped when tumours reached 2,000 mm^3 For all mice, the tumours were excised and weights recorded upon termination of the study.

[2] = system: human LS-174T colon tumour xenografts; assay: Human LS-174T colon tumour xenografts in Nude mice, test (b) CPT-11+ZD6474; format: in vivo; settings: ZD6474 25 mg/kg/day p.o. d 0-20, CPT-11 20 mg/kg i.v. d 0, 7 and 14
Description: • The control group (Group 1) received a daily oral (p.o.) administration of ZD6474 vehicle for 14 consecutive days (day 0-13) combined with two intravenous (i.v.) injections of saline (the vehicle for CPT-11) on day 0 and 7. […]
Tumor volumes (mm^3) were assessed at least twice weekly by bilateral Vernier caliper measurement and, taking length to be the longest diameter across the tumor and width the corresponding perpendicular, calculated using the formula (π/6)×(length×width)×square root of (length×width). Growth inhibition from the start of treatment was assessed by comparison of the differences in tumor volume between control and treated groups. For all mice, the study was stopped when tumours reached 2,000 mm^3 For all mice, the tumours were excised and weights recorded upon termination of the study.

Row | Structure (SMILES) | Inhibition of Control Tumour Growth at day 13 [1] [%] | Regressions: number of tumours which had regressed by ≧10% in volume by day 13, compared with pre-treatment volume on day 0 [1] | tumour regressions [1] [%] | mean tumour volume on day 20 [2] [mm^3]
1 | O=c1[nH]cc(F)c(=O)[nH]1 [5-FU, 5-fluorouracil, reference compound] | 68 | 6/15 | 40 | –
2 | COc1cc2c(Nc3ccc(Br)cc3F)ncnc2cc1OCC1CCN(C)CC1 [ZD6474, 4-(4-bromo-2-fluoroanilino)-6-methoxy-7-(1-methylpiperidin-4-ylmethoxy)quinazoline] | 80 | 5/15 | 33 | 475
